Patent publication US6426369B1, “Oxethazaine as antimicrobial agent” (Eisai Co., Ltd., priority 1997, dated 2002)

Tested on: H. pylori
Assay: Antimicrobial activity test 6: oxethazaine in combination with an antibiotic (AMPC, CAM, RXM), checker board method
Format: cell-based, Helicobacter pylori
Parameters: key to growth of H. pylori: “−” indicates the inhibited growth of H. pylori (presence of antimicrobial activity); “+” indicates the growth of H. pylori (absence of antimicrobial activity)
Conditions: for growth of H. pylori: oxethazaine μg/ml: 100, 50, 25, 12.5, 6.25, 3.13, 0
From the text: The effect of combined use with amoxicillin (AMPC), clarithromycin (CAM) or roxithromycin (RXM) was examined in the same manner as in antimicrobial activity test 1, using the checker board method.

[1] = combined use with oxethazaine, out of 15 strains (AMPC), 21 strains (CAM), 22 strains (RXM)

Compound: CC[C@H]1OC(=O)[C@H](C)[C@@H](O[C@H]2C[C@@](C)(OC)[C@@H](O)[C@H](C)O2)[C@H](C)[C@@H](O[C@@H]2O[C@H](C)C[C@H](N(C)C)[C@H]2O)[C@](C)(O)C[C@@H](C)/C(=N\OCOCCOC)[C@H](C)[C@@H](O)[C@]1(C)O [roxithromycin]
- additive effect, number of strains [1]: 19 strains/
- synergism, number of strains [1]: 4 strains/
- growth of H. pylori (strain EH 12, RXM 0.05 μg/ml): +
- growth of H. pylori (strain EH 12, RXM 0.1 μg/ml): +
- growth of H. pylori (strain EH 12, RXM 0.2 μg/ml): −
- growth of H. pylori (strain EH 12, RXM 0.4 μg/ml): −
- growth of H. pylori (strain EH 12, RXM 0.8 μg/ml): −
- growth of H. pylori (strain EH 12, RXM 1.56 μg/ml): −
- growth of H. pylori (strain EH 12, RXM 3.13 μg/ml): −
- growth of H. pylori (strain EH 12, RXM 6.25 μg/ml): −
- growth of H. pylori (strain EH 12, RXM 12.5 μg/ml): −
- growth of H. pylori (strain EH 12, RXM 25 μg/ml): −
- growth of H. pylori (strain EH 12, RXM 50 μg/ml): −
- growth of H. pylori (strain EH 12, RXM 100 μg/ml): −
- growth of H. pylori (strain EH 13, RXM 0.05 μg/ml): +
- growth of H. pylori (strain EH 13, RXM 0.1 μg/ml): +
- growth of H. pylori (strain EH 13, RXM 0.2 μg/ml): −
- growth of H. pylori (strain EH 13, RXM 0.4 μg/ml): −
- growth of H. pylori (strain EH 13, RXM 0.8 μg/ml): −
- growth of H. pylori (strain EH 13, RXM 1.56 μg/ml): −
- growth of H. pylori (strain EH 13, RXM 3.13 μg/ml): −
- growth of H. pylori (strain EH 13, RXM 6.25 μg/ml): −
- growth of H. pylori (strain EH 13, RXM 12.5 μg/ml): −
- growth of H. pylori (strain EH 13, RXM 25 μg/ml): −
- growth of H. pylori (strain EH 13, RXM 50 μg/ml): −
- growth of H. pylori (strain EH 13, RXM 100 μg/ml): −
- growth of H. pylori (strain NCTC11637, RXM 0.05 μg/ml): +
- growth of H. pylori (strain NCTC11637, RXM 0.1 μg/ml): +
- growth of H. pylori (strain NCTC11637, RXM 0.2 μg/ml): −
- growth of H. pylori (strain NCTC11637, RXM 0.4 μg/ml): −
- growth of H. pylori (strain NCTC11637, RXM 0.8 μg/ml): −
- growth of H. pylori (strain NCTC11637, RXM 1.56 μg/ml): −
- growth of H. pylori (strain NCTC11637, RXM 3.13 μg/ml): −
- growth of H. pylori (strain NCTC11637, RXM 6.25 μg/ml): −
- growth of H. pylori (strain NCTC11637, RXM 12.5 μg/ml): −
- growth of H. pylori (strain NCTC11637, RXM 25 μg/ml): −
- growth of H. pylori (strain NCTC11637, RXM 50 μg/ml): −
- growth of H. pylori (strain NCTC11637, RXM 100 μg/ml): −
- growth of H. pylori (strain NCTC11639, RXM 0.05 μg/ml): +
- growth of H. pylori (strain NCTC11639, RXM 0.1 μg/ml): +
- growth of H. pylori (strain NCTC11639, RXM 0.2 μg/ml): +
- growth of H. pylori (strain NCTC11639, RXM 0.4 μg/ml): +
- growth of H. pylori (strain NCTC11639, RXM 0.8 μg/ml): −
- growth of H. pylori (strain NCTC11639, RXM 1.56 μg/ml): −
- growth of H. pylori (strain NCTC11639, RXM 3.13 μg/ml): −
- growth of H. pylori (strain NCTC11639, RXM 6.25 μg/ml): −
- growth of H. pylori (strain NCTC11639, RXM 12.5 μg/ml): −
- growth of H. pylori (strain NCTC11639, RXM 25 μg/ml): −
- growth of H. pylori (strain NCTC11639, RXM 50 μg/ml): −
- growth of H. pylori (strain NCTC11639, RXM 100 μg/ml): −
